Reference: patent publication US4232121A, “Process for selecting methine dyes which inhibit cell growth” (Eastman Kodak Company, priority 1978, dated 1980)
Where two headings read alike, the source gives them in different places.

Columns and labels:
[1] = tested on: Bacillus pumilus strain K-1; test: Inhibition of bacterial growth, filter paper on inoculated agar plates; format: cell-based; settings: Tables V and VI; 10^-3 molar, three days
[2] = Oxidation potential (Eox) of the dye; format: physicochemical; settings: Tables I, II, V, VI
[3] = Reduction potential (ER) of the dye; settings: Tables I, II, V, VI, VII, IX
Description: (§1) If a published reduction potential is not available, suitable techniques for measuring reduction potential are available and can be used. […] This technique involves measurement at 20° C., of an approximately 10^-4 molar solution of the dye in an electrolyte, such as methanol which is 0.05 molar in lithium chloride, using a dropping mercury electrode. The potential values are reported by reference to a silver-silver chloride electrode in a saturated solution of potassium chloride at 20° C.

[4] = Solubility / stability comments on the dyes; format: physicochemical; settings: Table IX
[5] = not told
Description: as §1

Sea Urchin Eggs = test: Inhibition of cell division in fertilized sea urchin eggs; format: cell-based; settings: arbitrary scale 0 to 5, 5 most active; dye 10^-5 to 10^-6 molar, 60 minutes after fertilization
Description: To suspensions in filtered sea water of fertilized sea urchin eggs there was added, three minutes after fertilization, methanolic solutions of the dyes in an amount sufficient to yield a final concentration of dye of between 10^-5 and 10^-6 molar. The final concentration of methanol was, at a maximum 1×10^-4 molar. The eggs were visually observed at 60 minutes after fertilization to determine if cell division and the formation of mitotic apparatus had been inhibited. A rating was assigned based on the concentration of dye required to inhibit cell division and synthesis of DNA.

SMILES	Diameter of Inhibition [1]	Eox [2]	ER [3]	Comment: solubility [4]	% Bound (Bacillus pumilus (K-1)) [%]	ER [5]	reduction potential (ER) [5] [volts]	Sea Urchin Eggs Activity (Sea Urchin Eggs)
CCN1C(=CC=Cc2sc3cc([N+](=O)[O-])ccc3[n+]2CC)Sc2cc([N+](=O)[O-])ccc21 [17,6,6'-dinitro]	None	+.96	-.58	–	–	–	–	–
CCN1C(=CC=Cc2sc3ccc4ccccc4c3[n+]2CC)Sc2ccc3ccccc3c21 [Dye 12]	–	–	–	Insoluble	93.1	-1.12	-1.12	0
